Activity calls are given as the source filed them.
Legend:
[1] = molecular target: Nuclear receptor subfamily 5 group A member 2 (Homo sapiens, UniProt O00482); assay type: functional, cell-based;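 also: HEK293T cells transfected with LRH-1 and a StAR promoter luciferase reporter; potency for inhibitors that lower LRH-1 driven reporter light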
[2] = nonselective StAR promoter luciferase inhibitors – cell-based, luminescence, luciferase reporter, counter-screen for LRH-1 inverse agonist project, dose response (AID 651969); assay type: functional
Steroidogenic factor 1 = Steroidogenic factor 1 (Homo sapiens, UniProt Q13285); assay: Counterscreen for inverse agonists of the liver receptor homolog-1 (LRH-1; NR5A2): Luminescence-based cell-based high throughput dose response assay to identify inverse agonists of the Steroidogenic Factor 1 Nuclear Receptor (SF1; NR5A1).; assay type: functional
Sequence of Steroidogenic factor 1 (Q13285 whole entry): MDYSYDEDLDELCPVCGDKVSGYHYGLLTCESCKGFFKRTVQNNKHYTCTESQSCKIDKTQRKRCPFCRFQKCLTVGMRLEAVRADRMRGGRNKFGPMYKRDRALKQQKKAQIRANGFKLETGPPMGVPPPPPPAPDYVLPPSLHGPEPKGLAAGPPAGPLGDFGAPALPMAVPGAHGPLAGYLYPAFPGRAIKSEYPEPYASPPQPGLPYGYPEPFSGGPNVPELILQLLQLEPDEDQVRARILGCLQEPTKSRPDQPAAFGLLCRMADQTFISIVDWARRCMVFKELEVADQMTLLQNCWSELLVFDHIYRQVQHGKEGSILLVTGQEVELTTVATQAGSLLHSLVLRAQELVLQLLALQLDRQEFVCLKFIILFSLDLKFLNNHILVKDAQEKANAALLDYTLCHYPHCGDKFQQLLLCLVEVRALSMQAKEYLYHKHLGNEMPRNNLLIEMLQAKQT

cells [3] = assay type: functional, cell-based
cells [4] = assay type: functional, cell-based; remark: listed apart in the source
[5] = molecular target: T1, Probable nicotinate-nucleotide adenylyltransferase (Staphylococcus aureus (strain N315), UniProt P65502); assay type: functional, Staphylococcus aureus subsp. aureus N315;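 as to IC50 Mean: confirmatory dose-response retesting of NadD inhibitor hits first found in an ultra-high-throughput screen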
T1 sequence (P65502 whole entry): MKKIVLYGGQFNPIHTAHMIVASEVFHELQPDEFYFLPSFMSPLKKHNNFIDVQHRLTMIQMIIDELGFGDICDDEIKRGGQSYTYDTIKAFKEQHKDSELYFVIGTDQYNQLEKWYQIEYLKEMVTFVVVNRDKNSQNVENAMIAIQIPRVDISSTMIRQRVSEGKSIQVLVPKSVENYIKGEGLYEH

[6] = molecular target: T2, Small ubiquitin-related modifier 1 (Homo sapiens, UniProt P63165); assay: SUMO1 protein-protein binding blockers, potency – biochemical, FRET, dose response (AID 624383); assay type: functional; settings: read-out: IC50_Mean
T2 sequence (P63165 whole entry): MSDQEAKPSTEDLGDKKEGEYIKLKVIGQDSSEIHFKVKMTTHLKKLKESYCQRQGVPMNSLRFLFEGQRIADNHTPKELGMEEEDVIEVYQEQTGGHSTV

[7] = molecular target: T1, Probable nicotinate-nucleotide adenylyltransferase; assay type: functional, Staphylococcus aureus subsp. aureus N315; settings: read-out: IC50_Mean
[8] = molecular target: T2, Small ubiquitin-related modifier 1; assay: SUMO1 protein interaction blockers, potency – biochemical, fluorescence polarization, uHTS hits, dose response (AID 624382); assay type: functional; settings: read-out: IC50_Mean
[9] = molecular target: T3, Small ubiquitin-related modifier 2 (Homo sapiens, UniProt P61956); assay: SUMO2 binding disruption by SUMO1 hits – biochemical, FRET, human SUMO2, uHTS hits, selectivity assay for SUMO1 interaction inhibitor project, dose response (AID 624384); assay type: functional; settings: read-out: IC50_Mean
T3 sequence (P61956 whole entry, the tested form may be a part): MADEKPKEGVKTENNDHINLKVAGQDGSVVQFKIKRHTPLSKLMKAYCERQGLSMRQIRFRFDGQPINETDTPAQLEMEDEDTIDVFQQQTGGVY

[10] = molecular target: T4, Carboxy-terminal domain RNA polymerase II polypeptide A small phosphatase 1 (Homo sapiens, UniProt Q9GZU7); assay: CTDSP1 inhibitors, concentration-response, biochemical, absorbance readout, ultra-high-throughput screen actives (AID 540297); assay type: functional
T4 sequence (Q9GZU7 whole entry): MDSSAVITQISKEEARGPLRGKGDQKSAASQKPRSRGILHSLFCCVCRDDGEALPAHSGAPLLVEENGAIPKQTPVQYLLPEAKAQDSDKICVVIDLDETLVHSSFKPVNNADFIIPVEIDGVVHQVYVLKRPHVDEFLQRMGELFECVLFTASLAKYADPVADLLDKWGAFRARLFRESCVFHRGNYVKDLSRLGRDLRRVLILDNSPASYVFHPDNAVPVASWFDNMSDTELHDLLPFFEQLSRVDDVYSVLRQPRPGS

[11] = molecular target: T3, Small ubiquitin-related modifier 2; assay: disruption of SUMO2 interaction with SIM peptide – biochemical, fluorescence polarization, uHTS hits, selectivity assay for SUMO1 interaction inhibitor project, dose response (AID 624385); assay type: functional; settings: read-out: IC50_Mean
[12] = molecular target: SWI/SNF-related matrix-associated actin-dependent regulator of chromatin subfamily A member 2 (Homo sapiens, UniProt P51531); assay: Luminescence-based cell-based high throughput dose response assay to identify activators of the function of SWI/SNF related, matrix associated, actin dependent regulator of chromatin, subfamily a, member 2 (SMARCA2, BRM).; assay type: functional
Sequence of SWI/SNF-related matrix-associated actin-dependent regulator of chromatin subfamily A member 2 (P51531 whole entry): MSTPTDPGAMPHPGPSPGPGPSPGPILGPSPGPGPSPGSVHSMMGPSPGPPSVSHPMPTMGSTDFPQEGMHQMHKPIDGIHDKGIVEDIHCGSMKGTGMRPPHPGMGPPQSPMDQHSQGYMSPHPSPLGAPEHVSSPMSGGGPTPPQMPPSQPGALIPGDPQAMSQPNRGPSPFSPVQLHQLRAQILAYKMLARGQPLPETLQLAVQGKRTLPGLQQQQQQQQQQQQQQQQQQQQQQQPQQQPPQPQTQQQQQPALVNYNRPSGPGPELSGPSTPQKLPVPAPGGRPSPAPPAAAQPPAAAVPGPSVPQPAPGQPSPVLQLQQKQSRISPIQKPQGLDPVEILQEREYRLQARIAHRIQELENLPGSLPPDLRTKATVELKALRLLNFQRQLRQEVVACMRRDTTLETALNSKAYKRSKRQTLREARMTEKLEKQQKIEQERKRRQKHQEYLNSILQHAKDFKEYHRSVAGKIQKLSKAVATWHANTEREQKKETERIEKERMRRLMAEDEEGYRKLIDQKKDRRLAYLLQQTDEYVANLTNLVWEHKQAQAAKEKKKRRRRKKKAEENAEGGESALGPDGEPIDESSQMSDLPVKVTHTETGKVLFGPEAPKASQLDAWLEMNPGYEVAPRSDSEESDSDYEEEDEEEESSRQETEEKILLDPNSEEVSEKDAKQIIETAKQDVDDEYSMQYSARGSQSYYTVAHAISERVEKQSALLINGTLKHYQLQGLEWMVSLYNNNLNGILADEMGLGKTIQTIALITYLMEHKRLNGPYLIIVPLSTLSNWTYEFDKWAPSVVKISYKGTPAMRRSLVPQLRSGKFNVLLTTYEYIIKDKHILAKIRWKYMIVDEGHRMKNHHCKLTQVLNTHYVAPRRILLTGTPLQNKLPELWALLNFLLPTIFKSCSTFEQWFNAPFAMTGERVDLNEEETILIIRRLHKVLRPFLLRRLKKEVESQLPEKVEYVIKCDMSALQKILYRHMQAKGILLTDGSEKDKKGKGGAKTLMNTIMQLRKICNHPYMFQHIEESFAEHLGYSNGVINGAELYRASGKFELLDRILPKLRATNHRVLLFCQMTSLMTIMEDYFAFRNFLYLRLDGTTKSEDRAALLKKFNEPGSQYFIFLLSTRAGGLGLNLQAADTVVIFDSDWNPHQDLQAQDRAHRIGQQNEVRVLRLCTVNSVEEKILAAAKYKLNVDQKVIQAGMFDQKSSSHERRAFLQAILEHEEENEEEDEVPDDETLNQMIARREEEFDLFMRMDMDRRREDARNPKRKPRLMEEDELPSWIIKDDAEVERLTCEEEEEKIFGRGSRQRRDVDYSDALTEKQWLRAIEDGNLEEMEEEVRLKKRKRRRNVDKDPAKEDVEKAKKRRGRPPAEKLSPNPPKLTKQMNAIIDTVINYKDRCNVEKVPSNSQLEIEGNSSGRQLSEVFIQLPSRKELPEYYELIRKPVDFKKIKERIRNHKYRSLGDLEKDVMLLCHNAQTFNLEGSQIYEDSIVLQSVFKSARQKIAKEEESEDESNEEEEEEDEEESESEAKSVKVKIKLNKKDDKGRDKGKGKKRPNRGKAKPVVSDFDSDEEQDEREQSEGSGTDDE

Protein RecA = molecular target: T5, Protein RecA (Mycobacterium tuberculosis, UniProt P9WHJ3); assay: Fluorescence Cell-Free Homogeneous Dose Retest to Identify Inhibitors of RecA-Intein Splicing Activity. [Related pubchem assays (depositor defined):AID2097, AID2223, AID489010, AID492950]; assay type: functional
T5 sequence (P9WHJ3 whole entry): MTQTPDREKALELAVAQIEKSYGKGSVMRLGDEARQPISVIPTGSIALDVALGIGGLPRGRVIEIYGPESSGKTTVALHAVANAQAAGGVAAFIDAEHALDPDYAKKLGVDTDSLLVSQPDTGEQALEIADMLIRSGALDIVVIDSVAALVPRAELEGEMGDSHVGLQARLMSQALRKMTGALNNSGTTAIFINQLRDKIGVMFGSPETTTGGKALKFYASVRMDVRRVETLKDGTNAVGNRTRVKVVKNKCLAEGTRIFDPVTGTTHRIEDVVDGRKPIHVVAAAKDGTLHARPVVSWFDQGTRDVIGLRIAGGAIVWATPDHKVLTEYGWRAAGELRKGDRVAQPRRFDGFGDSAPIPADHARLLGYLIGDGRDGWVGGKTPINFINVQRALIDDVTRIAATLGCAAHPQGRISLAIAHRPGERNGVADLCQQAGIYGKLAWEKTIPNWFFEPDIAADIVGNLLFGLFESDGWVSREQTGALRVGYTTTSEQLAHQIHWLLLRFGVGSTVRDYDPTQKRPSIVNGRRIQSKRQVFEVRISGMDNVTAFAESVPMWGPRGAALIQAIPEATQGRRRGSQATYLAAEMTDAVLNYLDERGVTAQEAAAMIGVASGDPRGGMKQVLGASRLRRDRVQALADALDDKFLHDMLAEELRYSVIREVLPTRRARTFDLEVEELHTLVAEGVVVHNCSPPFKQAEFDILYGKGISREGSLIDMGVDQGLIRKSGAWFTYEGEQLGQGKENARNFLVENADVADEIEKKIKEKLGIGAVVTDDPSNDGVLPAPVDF

[13] = molecular target: T6, Polyadenylate-binding protein 1 (Homo sapiens, UniProt P11940); assay: MLLE binding blockers, Cy5 peptide tracer – biochemical, fluorescence polarization, Cy5-PAM2 peptide, secondary, miRNA deadenylation inhibitor project, dose response (AID 602260); assay type: functional; settings: read-out: IC50_Mean
T6 sequence (P11940 whole entry): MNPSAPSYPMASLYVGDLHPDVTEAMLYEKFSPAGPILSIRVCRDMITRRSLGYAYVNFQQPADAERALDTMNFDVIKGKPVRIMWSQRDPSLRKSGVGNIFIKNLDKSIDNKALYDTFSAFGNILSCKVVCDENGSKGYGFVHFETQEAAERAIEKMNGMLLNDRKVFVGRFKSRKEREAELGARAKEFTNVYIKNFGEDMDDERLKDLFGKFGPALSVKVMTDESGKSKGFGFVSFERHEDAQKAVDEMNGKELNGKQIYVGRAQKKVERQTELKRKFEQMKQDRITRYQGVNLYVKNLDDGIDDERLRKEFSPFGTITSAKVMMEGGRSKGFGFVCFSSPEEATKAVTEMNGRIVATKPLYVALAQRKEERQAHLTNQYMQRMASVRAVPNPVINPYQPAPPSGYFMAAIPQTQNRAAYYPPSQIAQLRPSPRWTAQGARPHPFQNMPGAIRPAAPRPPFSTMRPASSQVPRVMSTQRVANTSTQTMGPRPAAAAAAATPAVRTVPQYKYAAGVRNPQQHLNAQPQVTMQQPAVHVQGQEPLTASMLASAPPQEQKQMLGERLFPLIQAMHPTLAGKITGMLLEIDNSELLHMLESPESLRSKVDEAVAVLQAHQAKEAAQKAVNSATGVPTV

[14] = molecular target: T7, Replicative DNA helicase DnaB (Mycobacterium tuberculosis, UniProt P9WMR3); assay: DnaB intein splicing inhibitors, dose response, biochemical, cell-free fluorescence (AID 449749); assay type: functional
T7 sequence (P9WMR3 whole entry): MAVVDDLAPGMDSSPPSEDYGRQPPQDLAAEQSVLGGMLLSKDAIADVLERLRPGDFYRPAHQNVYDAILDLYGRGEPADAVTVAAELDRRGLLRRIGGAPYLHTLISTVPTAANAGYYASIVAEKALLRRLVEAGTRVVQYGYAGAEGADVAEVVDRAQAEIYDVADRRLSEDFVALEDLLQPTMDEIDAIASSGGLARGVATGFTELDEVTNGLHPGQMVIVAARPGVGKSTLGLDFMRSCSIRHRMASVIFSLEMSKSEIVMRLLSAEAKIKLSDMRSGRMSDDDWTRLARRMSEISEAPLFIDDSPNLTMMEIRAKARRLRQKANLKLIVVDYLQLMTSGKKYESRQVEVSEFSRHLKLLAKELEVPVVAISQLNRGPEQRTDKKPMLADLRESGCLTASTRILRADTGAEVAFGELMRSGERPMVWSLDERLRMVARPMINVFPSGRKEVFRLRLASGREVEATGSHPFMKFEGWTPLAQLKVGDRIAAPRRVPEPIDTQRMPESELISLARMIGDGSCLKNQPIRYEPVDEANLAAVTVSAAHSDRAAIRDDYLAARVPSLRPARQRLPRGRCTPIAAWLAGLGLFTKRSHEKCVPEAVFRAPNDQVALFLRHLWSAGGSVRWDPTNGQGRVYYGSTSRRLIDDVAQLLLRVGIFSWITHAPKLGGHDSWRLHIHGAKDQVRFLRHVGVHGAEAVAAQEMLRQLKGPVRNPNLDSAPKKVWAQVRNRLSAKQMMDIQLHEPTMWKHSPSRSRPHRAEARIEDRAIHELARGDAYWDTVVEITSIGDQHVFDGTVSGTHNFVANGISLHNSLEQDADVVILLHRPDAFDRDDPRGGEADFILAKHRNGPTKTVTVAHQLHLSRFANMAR

[15] = molecular target: T8, Heat shock factor protein 1 (Mus musculus, UniProt P38532); assay: enhancement of HSF1-driven luciferase signal – cell-based, NIH3T3, luminescence, dose retest, confirmation (AID 435004); assay type: functional;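 also: stress induced by proteasome inhibitor MG132 added 30 min after compound; luciferase reporter driven by HSF1 response element in NIH3T3 cells; actives raise luminescence as potentiators of the MG132 stress response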
T8 sequence (P38532 whole entry): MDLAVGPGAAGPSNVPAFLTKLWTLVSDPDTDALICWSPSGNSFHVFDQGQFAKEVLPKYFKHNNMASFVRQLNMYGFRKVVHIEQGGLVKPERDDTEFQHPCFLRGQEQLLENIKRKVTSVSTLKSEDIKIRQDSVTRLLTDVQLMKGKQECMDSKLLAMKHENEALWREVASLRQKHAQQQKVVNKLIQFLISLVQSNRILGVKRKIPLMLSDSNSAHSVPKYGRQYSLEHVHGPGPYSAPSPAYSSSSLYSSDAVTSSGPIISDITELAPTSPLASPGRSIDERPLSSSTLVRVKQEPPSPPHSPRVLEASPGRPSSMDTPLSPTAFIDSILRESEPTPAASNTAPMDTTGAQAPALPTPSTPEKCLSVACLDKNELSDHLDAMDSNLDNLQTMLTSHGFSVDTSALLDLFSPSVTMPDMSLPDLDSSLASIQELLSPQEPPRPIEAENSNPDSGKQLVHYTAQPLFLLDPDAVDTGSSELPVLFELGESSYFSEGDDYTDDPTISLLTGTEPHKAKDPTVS

Melanocortin receptor 4 = Melanocortin receptor 4 (Homo sapiens, UniProt P32245); assay: inhibitors of MC4R cAMP signaling – cell-based, TR-FRET, biased antagonists, dose response (AID 602298); assay type: functional;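 also: antagonist potency against agonist-stimulated cAMP production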
Sequence of Melanocortin receptor 4 (P32245 whole entry): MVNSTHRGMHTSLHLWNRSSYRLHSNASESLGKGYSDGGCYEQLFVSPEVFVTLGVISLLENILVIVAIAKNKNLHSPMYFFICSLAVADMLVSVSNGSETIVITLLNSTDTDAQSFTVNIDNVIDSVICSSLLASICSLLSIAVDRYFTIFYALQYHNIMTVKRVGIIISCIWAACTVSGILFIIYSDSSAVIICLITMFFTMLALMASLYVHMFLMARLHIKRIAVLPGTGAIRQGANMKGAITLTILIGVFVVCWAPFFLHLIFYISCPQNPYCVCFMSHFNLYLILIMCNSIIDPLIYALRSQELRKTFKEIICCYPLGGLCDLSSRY

[16] = cAMP pathway inhibition in counterscreen cell line – TR-FRET cAMP detection, counter-screen for MC4R biased antagonist project, dose response (AID 602305); assay type: functional, cell-based;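 also: U2OS cells stimulated with forskolin near its EC80 as the cAMP inducer; potency is for inhibition of forskolin-stimulated cAMP signaling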
[17] = molecular target: T6, Polyadenylate-binding protein 1; assay: MLLE domain peptide-binding blockers, IC50 – biochemical, fluorescence polarization, FITC-PAM2 peptide, dose response (AID 602259); assay type: functional; settings: read-out: IC50_Mean
[18] = Counterscreen for activators of the function of SWI/SNF related, matrix associated, actin dependent regulator of chromatin, subfamily a, member 2 (SMARCA2, BRM): Luminescence-based cell-based high throughput dose response assay to identify non-selective compounds using the VP16 reporter assay.; assay type: functional
cells [19] = assay type: functional, cell-based; remark: listed apart in the source
[20] = molecular target: T9, Nuclear receptor subfamily 0 group B member 1 (Homo sapiens, UniProt P51843); assay type: functional, cell-based;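 also: HEK293T cells transfected with SF-1 and DAX-1 plus StAR promoter luciferase reporter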
T9 sequence (P51843 whole entry): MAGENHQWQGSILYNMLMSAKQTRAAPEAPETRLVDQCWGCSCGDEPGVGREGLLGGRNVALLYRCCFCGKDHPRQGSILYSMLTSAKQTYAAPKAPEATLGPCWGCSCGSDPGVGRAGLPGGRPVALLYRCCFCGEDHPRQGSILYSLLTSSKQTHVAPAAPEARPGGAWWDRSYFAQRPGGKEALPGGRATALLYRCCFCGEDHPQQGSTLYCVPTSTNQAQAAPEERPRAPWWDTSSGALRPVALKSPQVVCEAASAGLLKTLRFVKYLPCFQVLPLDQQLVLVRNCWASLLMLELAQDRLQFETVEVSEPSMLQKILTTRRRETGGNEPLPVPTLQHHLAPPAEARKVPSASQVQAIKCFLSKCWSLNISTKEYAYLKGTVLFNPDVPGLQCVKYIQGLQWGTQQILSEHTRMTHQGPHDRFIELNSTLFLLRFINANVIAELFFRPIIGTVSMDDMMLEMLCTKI

Sequence of Nuclear receptor subfamily 5 group A member 2 (O00482 whole entry): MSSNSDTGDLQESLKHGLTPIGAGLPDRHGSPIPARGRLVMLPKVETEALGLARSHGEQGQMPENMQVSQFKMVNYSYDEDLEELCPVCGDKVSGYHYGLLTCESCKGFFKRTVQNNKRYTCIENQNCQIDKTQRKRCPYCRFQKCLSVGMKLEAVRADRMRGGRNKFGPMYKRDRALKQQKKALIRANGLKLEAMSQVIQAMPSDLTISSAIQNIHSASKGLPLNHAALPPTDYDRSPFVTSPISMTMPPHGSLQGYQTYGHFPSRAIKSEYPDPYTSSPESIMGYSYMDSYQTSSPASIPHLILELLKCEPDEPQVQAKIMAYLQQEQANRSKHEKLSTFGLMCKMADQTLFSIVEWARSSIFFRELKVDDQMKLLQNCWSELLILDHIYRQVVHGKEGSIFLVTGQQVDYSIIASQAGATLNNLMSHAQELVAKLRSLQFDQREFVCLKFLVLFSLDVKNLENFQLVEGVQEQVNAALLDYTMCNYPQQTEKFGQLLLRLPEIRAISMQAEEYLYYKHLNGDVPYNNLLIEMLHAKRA

Structure (SMILES): COc1ccc(NC(=O)CSc2[nH]cnc3nncc2-3)cc1
- IC50 [1]: 1.37 µM (active)
- IC50 [2]: 35.9 µM (inactive)
- IC50 (Steroidogenic factor 1): 1.73 µM (active)
- EC50 (cells [3]): > 350 µM (not active)
- EC50 (cells [4]): > 350 µM (not active)

Structure (SMILES): O=C1N=c2ccccc2=C1Nc1ccc(S(=O)(=O)Nc2nccs2)cc1
- IC50 [5]: 5.32 µM (active)
- IC50 [6]: 51 µM (inactive)
- IC50 [7]: 15.5 µM (active)
- IC50 [8]: 11 µM (active)
- IC50 [9]: 46.1 µM (inactive)
- IC50 [10]: 4.2 µM (active)
- IC50 [11]: 9.54 µM (active)

Structure (SMILES): CC(=O)Nc1cccc(NC(=O)CSc2ncc(C(=O)Nc3ccccc3)c(=O)n2C)c1
- EC50 [12]: > 91.1 µM (inactive)
- EC50 (Protein RecA): 1.61 µM (active)
- IC50 [13]: > 66 µM (inactive)
- AC50 [14]: 6.51 µM (active)
- EC50 [15]: 12.8 µM (active)
- IC50 (Melanocortin receptor 4): > 64.6 µM (inactive)
- IC50 [16]: > 64.6 µM (inactive)
- IC50 [17]: > 66 µM (inactive)
- EC50 [18]: > 91.1 µM (inactive)

Structure (SMILES): O=C(CCN1C(=O)/C(=C\C=C\c2ccccc2)SC1=S)Nc1cccc(C(=O)O)c1
- IC50 (cells [19]): > 67.5 µM (inactive)
- IC50 [10]: 4.8 µM (active)
- IC50 [20]: > 67.5 µM (inactive)
